Laboratory results published in paper PMC5418947 (The Open Medicinal Chemistry Journal, 2017).
Like-named read-outs stand apart in the source and are kept apart here.

Columns and labels:
[1] = molecular target: TcAChE (from electric eel) (Electrophorus electricus, UniProt O42275); assay: Cholinesterase assay; assay type: biochemical
[2] = molecular target: eqBuChE (from equine serum) (Equus caballus, UniProt P81908); assay: biochemical; assay type: biochemical
[3] = DPPH free radical scavenging; assay type: physicochemical; conditions: read-out: DPPH IC50; 0.1 mM DPPH in methanol, 30 min, room temperature, 517 nm

Chain of TcAChE (from electric eel) (O42275 24-633): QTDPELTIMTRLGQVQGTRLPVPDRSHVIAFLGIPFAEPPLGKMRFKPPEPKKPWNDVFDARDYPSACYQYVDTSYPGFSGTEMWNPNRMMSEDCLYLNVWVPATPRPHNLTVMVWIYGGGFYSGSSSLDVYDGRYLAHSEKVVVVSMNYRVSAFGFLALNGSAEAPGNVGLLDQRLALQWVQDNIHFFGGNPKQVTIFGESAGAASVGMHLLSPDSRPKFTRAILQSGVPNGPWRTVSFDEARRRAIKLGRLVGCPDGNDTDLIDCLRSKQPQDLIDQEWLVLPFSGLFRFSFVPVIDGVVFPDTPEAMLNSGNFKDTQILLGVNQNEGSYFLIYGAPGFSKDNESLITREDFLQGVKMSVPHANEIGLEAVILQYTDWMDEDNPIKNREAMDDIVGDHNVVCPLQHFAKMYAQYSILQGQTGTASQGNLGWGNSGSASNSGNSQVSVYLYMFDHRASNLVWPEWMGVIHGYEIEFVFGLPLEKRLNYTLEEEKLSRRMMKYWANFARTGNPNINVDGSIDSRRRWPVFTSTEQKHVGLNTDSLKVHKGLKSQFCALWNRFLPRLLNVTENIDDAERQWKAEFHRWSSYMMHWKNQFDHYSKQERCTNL
Chain of eqBuChE (from equine serum) (P81908 whole entry): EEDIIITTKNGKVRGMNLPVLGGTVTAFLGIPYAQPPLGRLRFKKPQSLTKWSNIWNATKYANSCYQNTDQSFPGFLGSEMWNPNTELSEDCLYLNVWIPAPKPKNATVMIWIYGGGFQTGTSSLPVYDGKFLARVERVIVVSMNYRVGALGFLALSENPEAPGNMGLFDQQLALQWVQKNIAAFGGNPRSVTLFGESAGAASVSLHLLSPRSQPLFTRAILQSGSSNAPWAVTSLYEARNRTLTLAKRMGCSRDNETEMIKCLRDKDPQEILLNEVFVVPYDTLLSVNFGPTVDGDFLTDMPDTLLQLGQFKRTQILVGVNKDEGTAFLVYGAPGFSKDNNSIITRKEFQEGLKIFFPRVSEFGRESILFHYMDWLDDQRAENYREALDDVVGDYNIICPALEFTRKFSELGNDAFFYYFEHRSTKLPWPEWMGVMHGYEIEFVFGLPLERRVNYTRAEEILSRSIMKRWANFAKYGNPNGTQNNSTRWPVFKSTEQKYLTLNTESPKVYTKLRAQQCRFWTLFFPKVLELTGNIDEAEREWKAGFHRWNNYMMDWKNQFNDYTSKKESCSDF

Row | SMILES | IC50 [1] [nM] | BuChE selectivity index (SI) = IC50(TcAChE)/IC50(eqBuChE) [2] | IC50 [2] [nM] | IC50 [3] [nM] | BuChE selectivity index (SI) = IC50(TcAChE)/IC50(eqBuChE) ([2]; ratio of IC50 values) | BuChE inhibitor activity, fold higher than tacrine [2] | BuChE inhibitor activity, fold higher than tacrine ([2]; relative to tacrine) | AChE inhibitory activity (in words) ([1]; Ellman's method)
1 | Cc1c(C)c2c(c(C)c1O)CCC(C)(C(=O)NCCNc1c3c(nc4ccccc14)CCCC3)O2 (stereo not drawn) [Compound 8a, 6-Hydroxy-2,5,7,8-tetramethyl-N-{2-[(1,2,3,4-tetrahydroacridin-9-yl)amino]ethyl}-3,4-dihydro-2H-1-benzopyran-2-carboxamide] | 1530 | 11.87 | 129 | 46200 |  |  |  | 
2 | Cc1c(C)c2c(c(C)c1O)CCC(C)(C(=O)NCCCNc1c3c(nc4ccccc14)CCCC3)O2 (stereo not drawn) [Compound 8b, 6-Hydroxy-2,5,7,8-tetramethyl-N-{3-[(1,2,3,4-tetrahydroacridin-9-yl)amino]propyl}-3,4-dihydro-2H-1-benzopyran-2-carboxamide] | 1530 |  | 12.6 | 11500 | 121.62 |  |  | 
3 | Cc1c(C)c2c(c(C)c1O)CCC(C)(C(=O)NCCCCNc1c3c(nc4ccccc14)CCCC3)O2 (stereo not drawn) [Compound 8c, 6-Hydroxy-2,5,7,8-tetramethyl-N-{4-[(1,2,3,4-tetrahydroacridin-9-yl)amino]butyl}-3,4-dihydro-2H-1-benzopyran-2-carboxamide] | 2200 | 196.07 | 11.2 | 14400 |  |  |  | 
4 | Cc1c(C)c2c(c(C)c1O)CCC(C)(C(=O)NCCCCCCNc1c3c(nc4ccccc14)CCCC3)O2 (stereo not drawn) [Compound 8d, 6-Hydroxy-2,5,7,8-tetramethyl-N-{6-[(1,2,3,4-tetrahydroacridin-9-yl)amino]hexyl}-3,4-dihydro-2H-1-benzopyran-2-carboxamide] | 49.3 | 10.40 | 4.74 | 12700 |  | more than 3 fold |  | 
5 | c1ccc2c(NCCCCCCCN3CCc4c([nH]c5ccccc45)C3)c3c(nc2c1)CCCC3 [Compound 14, N-(7-(3,4-dihydro-1H-pyrido[3,4-b]indol-2(9H)-yl)heptyl)-1,2,3,4-tetrahydroacridin-9-amine] |  |  | 3.16 | 129000 | 5.49 |  | more than 3 fold | 
6 | c1ccc2c3c([nH]c2c1)CN(CCN1CCc2c([nH]c4ccccc24)C1)CC3 [Compound 16, 1,2-Bis(3,4-dihydro-1H-pyrido[3,4-b]indol-2(9H)-yl)ethane] | > 100000 |  | 1700 | 126000 | >58.88 |  |  | no inhibitory activity
7 | Cc1c(C)c2c(c(C)c1O)CCC(C)(C(=O)O)O2 (stereo not drawn) [Trolox, reference compound] |  |  |  | 17600 |  |  |  | 
